# Target: T1, mGlyT-1b (Mus musculus, UniProt P28571)
# T1 construct: host or cells: Flp-in-CHO
# T1 sequence (P28571 1-651 isoform P28571-2): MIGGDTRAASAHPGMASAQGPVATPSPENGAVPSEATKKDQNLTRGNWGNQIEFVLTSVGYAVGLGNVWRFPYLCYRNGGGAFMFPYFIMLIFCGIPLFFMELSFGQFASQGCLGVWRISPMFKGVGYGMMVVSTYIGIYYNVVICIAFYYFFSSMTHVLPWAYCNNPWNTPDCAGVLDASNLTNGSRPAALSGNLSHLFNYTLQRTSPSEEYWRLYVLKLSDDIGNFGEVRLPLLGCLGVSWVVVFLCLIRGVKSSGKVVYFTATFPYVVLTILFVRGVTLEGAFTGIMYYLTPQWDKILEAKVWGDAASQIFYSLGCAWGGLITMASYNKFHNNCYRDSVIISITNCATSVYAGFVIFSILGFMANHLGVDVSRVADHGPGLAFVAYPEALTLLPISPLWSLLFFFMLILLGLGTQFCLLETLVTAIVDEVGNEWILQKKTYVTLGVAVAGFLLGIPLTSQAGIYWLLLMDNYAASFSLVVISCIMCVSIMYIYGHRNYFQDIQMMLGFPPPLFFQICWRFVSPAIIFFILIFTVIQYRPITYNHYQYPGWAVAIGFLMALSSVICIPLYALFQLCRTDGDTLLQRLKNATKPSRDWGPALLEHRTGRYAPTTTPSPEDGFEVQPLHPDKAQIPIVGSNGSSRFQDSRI
# Test: Glycine Uptake Inhibition Assay (mGlyT-1b)
# Assay type: cell-based
# Details: [3H]-glycine uptake in Flp-in-CHO cells stably transfected with mGlyT1b cDNA; 20 min preincubation at 22° C.; read-out: IC50 (μM) at GlyT-1
# Method: DMEM complete medium: Nutrient mixture F-12 (Gibco Life-technologies), fetal bovine serum (FBS) 5%, (Gibco life technologies), Penicillin/Streptomycin 1% (Gibco life technologies), Hygromycin 0.6 mg/ml (Gibco life technologies), Glutamine 1 mM Gibco life technologies)
# Uptake buffer (UB): 150 mM NaCl, 10 mM Hepes-Tris, pH 7.4, 1 mM CaCl2, 2.5 mM KCl, 2.5 mM MgSO4, 10 mM (+) D-glucose. Flp-in™-CHO (Invitrogen Cat n^o R758-07)cells stably transfected with mGlyT1b cDNA.
# Glycine Uptake Inhibition Assay (mGlyT-1b)
# On day 1 mammalian cells, (Flp-in™-CHO), transfected with mGlyT-1b cDNA, were plated at the density of 40,000 cells/well in complete F-12 medium, without hygromycin in 96-well culture plates. On day 2 ,the medium was aspirated, and the cells were washed twice with uptake buffer (UB). The cells were then incubated for 20 min at 22° C. with either (i) no potential competitor, (ii) 10 mM non-radioactive glycine, (iii) a concentration of a potential inhibitor. A range of concentrations of the potential inhibitor was used to generate data for calculating the concentration of inhibitor resulting in 50% of the effect (e.g. IC50, the concentration of the competitor inhibiting glycine uptake of 50%). A solution was then immediately added containing [^3H]-glycine 60 nM (11-16 Ci/mmol) and 25 μM non-radioactive glycine. The plates were incubated with gentle shaking, and the reaction was stopped by aspiration of the mixture and washing (three times) with ice-cold UB. The cells were lysed with scintillation liquid, shaken 3 hours, and the radioactivity in the cells was counted using a scintillation counter.
row,SMILES,IC50 [µM]
1,"CC(=O)c1ccc(N2CCN(C(=O)c3cc([N+](=O)[O-])ccc3-c3ccccc3)CC2)c(F)c1 [Example 15, 1-{3-Fluoro-4-[4-(4-nitro-biphenyl-2-carbonyl)-piperazin-1-yl]-phenyl}-ethanone]",0.023
2,"CC(=O)c1ccc(N2CCN(C(=O)c3cc([N+](=O)[O-])ccc3C3CC3)CC2)c(F)c1 [Example 16, 1-{4-[4-(2-Cyclopropyl-5-nitro-benzoyl)-piperazin-1-yl]-3-fluoro-phenyl}-ethanone]",0.026
3,"COC(=O)c1ccc([N+](=O)[O-])cc1C(=O)N1CCN(c2ccc(C(C)=O)cc2F)CC1 [Example 43, 2-[4-(4-Acetyl-2-fluoro-phenyl)-piperazine-1-carbonyl]-4-nitro-benzoic acid methyl ester]",0.032
4,"CS(=O)(=O)c1ccc(-c2cccs2)c(C(=O)N2CCN(c3ccc(C(F)(F)F)cc3)CC2)c1 [Example 52, (5-Methanesulfonyl-2-thiophen-2-yl-phenyl)-[4-(4-trifluoromethyl-phenyl)-piperazin-1-yl]-methanone]",0.033
5,"CS(=O)(=O)c1ccc(-c2ccsc2)c(C(=O)N2CCN(c3ccc(C(F)(F)F)cc3)CC2)c1 [Example 53, (5-Methanesulfonyl-2-thiophen-3-yl-phenyl)-[4-(4-trifluoromethyl-phenyl)-piperazin-1-yl]-methanone]",0.006
6,"Cc1ccc(-c2ccc(S(C)(=O)=O)cc2C(=O)N2CCN(c3ccc(C(F)(F)F)cc3)CC2)s1 [Example 55, [5-Methanesulfonyl-2-(5-methyl-thiophen-2-yl)-phenyl]-[4-(4-trifluoromethyl-phenyl)-piperazin-1-yl]-methanone]",0.039
7,"CS(=O)(=O)c1ccc(-c2ccncc2)c(C(=O)N2CCN(c3ccc(C(F)(F)F)cc3)CC2)c1 [Example 59, (5-Methanesulfonyl-2-pyridin-4-yl-phenyl)-[4-(4-trifluoromethyl-phenyl)-piperazin-1-yl]-methanone]",0.033
8,"CS(=O)(=O)c1ccc(C2=CCOCC2)c(C(=O)N2CCN(c3ccc(C(F)(F)F)cc3)CC2)c1 [Example 60, [2-(3,6-Dihydro-2H-pyran-4-yl)-5-methanesulfonyl-phenyl]-[4-(4-trifluoromethyl-phenyl)-piperazin-1-yl]-methanone]",0.019
9,"CS(=O)(=O)c1ccc(-c2ccccc2)c(C(=O)N2CCN(c3ccc(C(F)(F)F)cc3F)CC2)c1 [Example 62, [4-(2-Fluoro-4-trifluoromethyl-phenyl)-piperazin-1-yl]-(4-methanesulfonyl-biphenyl-2-yl)-methanone]",0.019
10,"CS(=O)(=O)c1ccc(-c2ccc(F)cc2)c(C(=O)N2CCN(c3ccc(C(F)(F)F)cc3F)CC2)c1 [Example 63, (4′-Fluoro-4-methanesulfonyl-biphenyl-2-yl)-[4-(2-fluoro-4-trifluoromethyl-phenyl)-piperazin-1-yl]-methanone]",0.01
11,"CC(=O)c1ccc(N2CCN(C(=O)c3cc(S(C)(=O)=O)ccc3C3=CCCCC3)CC2)c(F)c1 [Example 68, 1-{4-[4-(2-Cyclohex-1-enyl-5-methanesulfonyl-benzoyl)-piperazin-1-yl]-3-fluoro-phenyl}-ethanone]",0.007
12,"CCc1ccc(N2CCN(C(=O)c3cc(S(C)(=O)=O)ccc3C3CCCCC3)CC2)c(F)c1 [Example 69, (2-Cyclohexyl-5-methanesulfonyl-phenyl)-[4-(4-ethyl-2-fluoro-phenyl)-piperazin-1-yl]-methanone]",0.031
13,"CC(=O)c1ccc(N2CCN(C(=O)c3cc(S(C)(=O)=O)ccc3C3=CCCC3)CC2)c(F)c1 [Example 71, 1-{4-[4-(2-Cyclopent-1-enyl-5-methanesulfonyl-benzoyl)-piperazin-1-yl]-3-fluoro-phenyl}-ethanone]",0.013
14,"CC(=O)c1ccc(N2CCN(C(=O)c3cc(S(C)(=O)=O)ccc3C3=CCOCC3)CC2)c(F)c1 [Example 72, 1-(4-{4-[2-(3,6-Dihydro-2H-pyran-4-yl)-5-methanesulfonyl-benzoyl]-piperazin-1-yl}-3-fluoro-phenyl)-ethanone]",0.021
15,"CC(=O)c1ccc(N2CCN(C(=O)c3cc(S(C)(=O)=O)ccc3C3=CCCCCC3)CC2)c(F)c1 [Example 73, 1-{4-[4-(2-Cyclohept-1-enyl-5-methanesulfonyl-benzoyl)-piperazin-1-yl]-3-fluoro-phenyl}-ethanone]",0.013
16,"CS(=O)(=O)c1ccc(C2=CCCCCC2)c(C(=O)N2CCN(c3ccc(C(F)(F)F)cc3)CC2)c1 [Example 75, (2-Cyclohept-1-enyl-5-methanesulfonyl-phenyl)-[4-(4-trifluoromethyl-phenyl)-piperazin-1-yl]-methanone]",0.014
17,"CNS(=O)(=O)c1ccc(-c2ccccc2)c(C(=O)N2CCN(c3ccc(C(F)(F)F)cc3)CC2)c1 [Example 76, 2-[4-(4-Trifluoromethyl-phenyl)-piperazine-1-carbonyl]-biphenyl-4-sulfonic acid methylamide]",0.012
18,"CS(=O)(=O)c1ccc(C2=CCCCC2)c(C(=O)N2CCN(c3ccc(C(F)(F)F)cc3)CC2)c1 [Example 77, (2-Cyclohex-1-enyl-5-methanesulfonyl-phenyl)-[4-(4-trifluoromethyl-phenyl)-piperazin-1-yl]-methanone]",0.011
19,"CS(=O)(=O)c1ccc(C2CCCC2)c(C(=O)N2CCN(c3ccc(C(F)(F)F)cc3)CC2)c1 [Example 79, (2-Cyclopentyl-5-methanesulfonyl-phenyl)-[4-(4-trifluoromethyl-phenyl)-piperazin-1-yl]-methanone]",0.008
20,"CS(=O)(=O)c1ccc(C2=CCOCC2)c(C(=O)N2CCN(c3ccc(C(F)(F)F)cc3F)CC2)c1 [Example 91, [2-(3,6-Dihydro-2H-pyran-4-yl)-5-methanesulfonyl-phenyl]-[4-(2-fluoro-4-trifluoromethyl-phenyl)-piperazin-1-yl]-methanone]",0.022
21,"CS(=O)(=O)c1ccc(-c2ccccc2F)c(C(=O)N2CCN(c3ncc(C(F)(F)F)cc3Cl)CC2)c1 [Example 111, [4-(3-Chloro-5-trifluoromethyl-pyridin-2-yl)-piperazin-1-yl]-(2′-fluoro-4-methanesulfonyl-biphenyl-2-yl)-methanone]",0.038
22,"CS(=O)(=O)c1ccc(-c2ccccc2)c(C(=O)N2CCN(c3ncc(C(F)(F)F)cc3Cl)CC2)c1 [Example 114, [4-(3-Chloro-5-trifluoromethyl-pyridin-2-yl)-piperazin-1-yl]-(4-methanesulfonyl-biphenyl-2-yl)-methanone]",0.035
23,"CS(=O)(=O)c1ccc(-c2ccccc2F)c(C(=O)N2CCN(c3ccc(C#N)cc3F)CC2)c1 [Example 126, 3-Fluoro-4-[4-(2′-fluoro-4-methane-sulfonyl-biphenyl-2-carbonyl)-piperazin-1-yl]-benzonitrile]",0.039
24,"CC(=O)c1ccc(N2CCN(C(=O)c3cc(S(C)(=O)=O)ccc3-c3ccsc3)CC2)cc1 [Example 127, 1-{4-[4-(5-Methanesulfonyl-2-thiophen-3-yl-benzoyl)-piperazin-1-yl]-phenyl}-ethanone]",0.036

# Test system: not given
# Test: not given
# Details: not given
row,SMILES,melting point [°C]
1,"CC(=O)c1ccc(N2CCN(C(=O)c3c(Cl)ccc([N+](=O)[O-])c3Cl)CC2)c(F)c1 [Example 12, 1-{4-[4-(2,6-Dichloro-3-nitro-benzoyl)-piperazin-1-yl]-3-fluoro-phenyl}-ethanone]",209 to 211
2,"COC(=O)c1ccc([N+](=O)[O-])cc1C(=O)N1CCN(c2ccc(C(C)=O)cc2F)CC1 [Example 43, 2-[4-(4-Acetyl-2-fluoro-phenyl)-piperazine-1-carbonyl]-4-nitro-benzoic acid methyl ester]",189 to 191

# Source: patent US7462617B2, “Substituted acylpiperazine derivatives” (Hoffmann-La Roche Inc., priority 2003, dated 2008)
